Consider 6 compounds from patent US4594348A, “Use of some 2-[2-[4-phenyl-1-piperazinyl]ethyl]-1H-naphth-[1,2-D]imidazole derivatives and their pharmaceutically acceptable salts in the treatment of cardiovascular diseases” (Gruppo Lepetit S.p.A., priority 1984, dated 1986).

Each structure is given as a SMILES string.

In assay [1] the test system is conscious normotensive dogs. Kind of assay: Blood pressure in conscious normotensive dogs (oral). In kind it is in vivo, dog (mongrel). As to conditions: Table II, oral. The protocol:
As for the experiments with conscious normotensive dogs, mongrel dogs with incannulated abdominal aorta or with incannulated abdominal aorta and cardiac left ventricle were used. The compounds were administered by oral route as powder in gelatine capsules. Mean blood pressure (M.B.P.) was registered directly using a Bentley pressure transducer.

For assay [2], the system named is conscious renal hypertensive dogs. Kind of assay: Systolic blood pressure in conscious renal hypertensive dogs (oral, Goldblatt's method). In kind it is in vivo, dog (mongrel). As to conditions: Table I, renal hypertensive dogs, oral. The protocol:
The experiments herein described which use renal hypertensive dogs are conducted essentially as described in the above cited text.
More particularly, in the experiments with conscious renal hypertensive dogs, mongrel dogs with two clips on the renal arteries were used according to the Goldblatt's method. The compounds were administered by oral route as powder in gelatine capsules. Systolic blood pressure (SBP) was registered at the tail (indirect method).
^a S.B.P. = Systolic blood pressure. It is determined after oral
administration where three animals were employed for each dose. It is
expressed in mmHg as mean value ± SE.
^b % Δ = % variation of the S.B.P. over the basal value (time
0) at the indicated time after administration.

Regarding `CC(C)n1c(CCN2CCN(c3ccccc3)CC2)nc2ccc3ccccc3c21` [Compound 1, 2-[2-(4-phenyl-1-piperazinyl)ethyl]-1-(1-methylethyl)-1H-naphth[1,2-d]imidazole], the “% systolic blood pressure variation” value in assay [1] (1 mg/kg) is reported as -17%; in assay [1] (5 mg/kg), -37%.

With `Cn1c(CCN2CCN(c3ccccc3)CC2)nc2ccc3ccccc3c21` [Compound 2, 2-[2-(4-phenyl-1-piperazinyl)ethyl]-1-methyl-1H-naphth-[1,2-d]imidazole], the “% systolic pressure variation” value in assay [2] (10 mg/kg) is -32%. In assay [1] (10 mg/kg), the “% systolic blood pressure variation” value is listed as -30%.

In the case of `Cn1c(CCN2CCN(c3ccc(Cl)cc3)CC2)nc2ccc3ccccc3c21` [Compound 4, 2-[2-[4-(4-chlorophenyl)-1-piperazinyl]ethyl]-1-methyl-1H-naphth[1,2-d]imidazole], the figures for the “% systolic pressure variation” value in assay [2] (10 mg/kg) and in assay [2] (20 mg/kg) were -29% and -31%, respectively.

As to `COc1cccc(N2CCN(CCc3nc4ccc5ccccc5c4n3C(C)C)CC2)c1` [Compound 5, 2-[2-[4-(3-methoxyphenyl)-1-piperazinyl]ethyl]-1-(1-methylethyl)-1H-naphth[1,2-d]imidazole], in assay [2] (20 mg/kg), the “% systolic pressure variation” value was -20%.

As to `Cn1c(CCN2CCN(c3cccc(C(F)(F)F)c3)CC2)nc2ccc3ccccc3c21` [Compound 6, 2-[2-[4-(3-trifluoromethylphenyl)-1-piperazinyl]ethyl]-1-methyl-1H-naphth[1,2-d]imidazole], the “% systolic pressure variation” value in assay [2] (20 mg/kg) is -39%. As for `CC(C)n1c(CCN2CCN(c3ccc(Cl)cc3)CC2)nc2ccc3ccccc3c21` [Compound 7, 2-[2-[4-(4-chlorophenyl)-1-piperazinyl]ethyl]-1-(1-methylethyl)-1H-naphth[1,2-d]imidazole], the “% systolic pressure variation” value in assay [2] (2 mg/kg) is reported as -14%; in assay [2] (5 mg/kg), -35%.
